This is an account of results in patent EP0902088A2, “Peptides with antiproliferative properties” (Radulescu, Razvan T., priority 1996, dated 1999).

Entries after “also recorded” stand apart in the source; their conditions may differ.

The subject of test [1] is MCF-7-Zellen. Nature of the test: Cell cycle analysis by FACS in MCF-7 breast carcinoma cells. In kind it is cell-based, human. The settings on record: peptide 10^-5M. An excerpt:
Die eine Versuchsanordnung beinhaltet Versuche mit der humanen intaktes Retinoblastomprotein enthaltenden Mammakarzinom-Zell-Linie MCF-7 bzw. der humanen defektes Retinoblastomprotein enthaltenden Osteosarkom-Zell-Linie SAOS-2. Man sät die Zellen zuerst in 12-well-Platten 100.000 (= Hunderttausend) Zellen/-well/ml RPMI oder DMEM/10% FCS) aus, läßt sie 24 Stunden adhärieren, […], und stimuliert sie dann entweder mit 10% FCS oder 10^-8 M IGF-1 oder 10^-6 M Insulin für 24 Stunden, wobei der Effekt der jeweils zugegebenen Peptide auf die jeweilige Stimulation, die ein Maß für die Zellteilungsrate ist, untersucht wird. Die Kontrollgruppe (G0/G1-synchronisierte Zellen) wird zum Zeitpunkt 0 nach der dreitägigen Hungerphase fixiert, die restlichen Zellen (+/- Peptid) werden nach 24 Stunden fixiert. Daraufhin werden die Zellen zwecks Zellzyklusanalyse im FACS analysiert. Analoge Methoden finden sich beispielsweise bei R. Fahraeus et al., Current Biology, 1996, Vol. 6, No. 1, pp 84-91 sowie bei L. Zhu et al., Genes & Development, 1993, Vol. 7, pp. 1111-1125.
For orientation: A flow cytometer gives signals particle by particle.

Test [2] concerns SAOS-2-Zellen. The experiment in a line: Cell cycle analysis by FACS in SAOS-2 osteosarcoma cells. It counts as cell-based, human. The settings on record: SAOS-2 stimulated with 10 % FCS; for G1-Phase / S-Phase: peptide 5 x 10^-5M. The source says: Die eine Versuchsanordnung beinhaltet Versuche mit der humanen intaktes Retinoblastomprotein enthaltenden Mammakarzinom-Zell-Linie MCF-7 bzw. der humanen defektes Retinoblastomprotein enthaltenden Osteosarkom-Zell-Linie SAOS-2. Man sät die Zellen zuerst in 12-well-Platten 100.000 (= Hunderttausend) Zellen/-well/ml RPMI oder DMEM/10% FCS) aus, läßt sie 24 Stunden adhärieren, hungert sie anschließend 3 Tage in DMEM ohne FCS mit dem Zweck, die Zellen in der G0/G1-Phase zu synchronisieren, und stimuliert sie dann entweder mit 10% FCS oder 10^-8 M IGF-1 oder 10^-6 M Insulin für 24 Stunden, wobei der Effekt der jeweils zugegebenen Peptide auf die jeweilige Stimulation, die ein Maß für die Zellteilungsrate ist, untersucht wird. Die Kontrollgruppe (G0/G1-synchronisierte Zellen) wird zum Zeitpunkt 0 nach der dreitägigen Hungerphase fixiert, die restlichen Zellen (+/- Peptid) werden nach 24 Stunden fixiert. Daraufhin werden die Zellen zwecks Zellzyklusanalyse im FACS analysiert. Analoge Methoden finden sich beispielsweise bei R. Fahraeus et al., Current Biology, 1996, Vol. 6, No. 1, pp 84-91 sowie bei L. Zhu et al., Genes & Development, 1993, Vol. 7, pp. 1111-1125.

Where [3] appears, read: MCF-7 stimulated with IGF-1 10^-8M.
Setting [4] is: MCF-7 stimulated with Insulin 10^-6M.
Setting [5] is: G0/G1-synchronised MCF-7 cells, serum-free.

As to Penetratin [reference compound], the S-Phase result in test [1] (setting [3]) and in test [1] (setting [4]) was “keinen Effekt” each time. Moreover, the “Bremsen der Zellzyklusprogression von SAOS-2-Zellen” value in test [2] (Tab 2) was “nicht”.

“NH2-KVLYFKRQIKIWFQNRRMKWKK-COOH (H-KVLYFKRQIKIWFQNRRMKWKK-OH) [P8]”: in test [1] (setting [3]), the G1-Phase result is recorded as “Zunahme”, the G2/M-Phase result is on record as “Zunahme”, the “Morphologie der behandelten Zellen” value is listed as “entspricht der apoptotischer Zellen” and the S-Phase result is “Abnahme”.

With `CC(C)C[C@@H](NC(=O)[C@H](NC(=O)[C@H](N)CCCCN)C(C)C)C(=O)N[C@H](Cc1ccc(O)cc1)C(=O)N[C@H](Cc1ccccc1)C(=O)N[C@H](CCCCN)C(=O)NCC(=O)NCC(=O)NCC(=O)NCCCC[C@H](NC(=O)CNC(=O)CNC(=O)CNC(=O)[C@@H](CCCCN)NC(=O)[C@@H](Cc1ccccc1)NC(=O)[C@@H](Cc1ccc(O)cc1)NC(=O)[C@@H](CC(C)C)NC(=O)[C@H](NC(=O)[C@H](N)CCCCN)C(C)C)C(=O)N[C@H](CCCNC(=N)N)C(=O)NCC(=O)NCCCC[C@H](NC(=O)CNC(=O)[C@@H](CCCNC(=N)N)NC(=O)[C@H](CCCCNC(=O)CNC(=O)CNC(=O)CNC(=O)[C@@H](CCCCN)NC(=O)[C@@H](Cc1ccccc1)NC(=O)[C@@H](Cc1ccc(O)cc1)NC(=O)[C@@H](CC(C)C)NC(=O)[C@H](NC(=O)[C@H](N)CCCCN)C(C)C)NC(=O)CNC(=O)CNC(=O)CNC(=O)[C@@H](CCCCN)NC(=O)[C@@H](Cc1ccccc1)NC(=O)[C@@H](Cc1ccc(O)cc1)NC(=O)[C@@H](CC(C)C)NC(=O)[C@H](NC(=O)[C@H](N)CCCCN)C(C)C)C(=O)NCC(=O)O` (racemic) [P7s, NH2-[dK-dV-dL-dY-dF-dK-GGG ]4-[lK-dR-G]2-lK-G-COOH], in test [1] (setting [3]), the G1-Phase entry is “Zunahme”, the G2/M-Phase entry is reported as “Zunahme”, the “Morphologie der behandelten Zellen” value is “entspricht der apoptotischer Zellen” and the S-Phase entry is “Abnahme”.

As to `CC[C@H](C)[C@H](NC(=O)[C@H](CCCCN)NC(=O)[C@@H](NC(=O)[C@H](CCC(N)=O)NC(=O)[C@H](CCCNC(=N)N)NC(=O)[C@@H](NC(=O)[C@H](CCCCN)NC(=O)[C@H](CCCCN)NC(=O)[C@H](Cc1ccc(O)cc1)NC(=O)[C@H](Cc1ccccc1)NC(=O)[C@@H](N)CC(C)C)C(C)C)[C@@H](C)CC)C(=O)N[C@@H](Cc1c[nH]c2ccccc12)C(=O)N[C@@H](Cc1ccccc1)C(=O)N[C@@H](CCC(N)=O)C(=O)N[C@@H](CC(N)=O)C(=O)N[C@@H](CCCNC(=N)N)C(=O)N[C@@H](CCCNC(=N)N)C(=O)N[C@@H](CCSC)C(=O)N[C@@H](CCCCN)C(=O)N[C@@H](Cc1c[nH]c2ccccc12)C(=O)N[C@@H](CCCCN)C(=O)N[C@@H](CCCCN)C(=O)O` [P6, NH2-LFYKKVRQIKIWFQNRRMKWKK-COOH], the G1-Phase result is “vermindert” in test [1] (setting [5]), “Zunahme” in test [1] (setting [3]) and “Zunahme” in test [2]. In addition, the “Morphologie der behandelten Zellen” value in test [1] (setting [5]) and in test [1] (setting [3]) was “entspricht der apoptotischer Zellen” in each case. The S-Phase entry in test [1] (setting [5]) is “steigert”; in test [1] (setting [3]), “Abnahme; also recorded: vermindern”; in test [1] (setting [4]), “vermindern”; in test [2], “Abnahme”.

With “H-LFYKKVPKKKRKV-OH [P5, NH2-L-F-Y-K-K-V-P-K-K-K-R-K-V-COOH]”, the G1-Phase result in test [1] (setting [5]) is “vermindert”; in test [2], “Zunahme”. Besides, the S-Phase result in test [1] (setting [5]) is on record as “steigert”; in test [1] (setting [3]), “vermindern”; in test [1] (setting [4]) it was “vermindern”; in test [2], “Abnahme”.
